Source: patent US6358736B1, “Method for increasing the antigen presenting ability of leukemia cells” (The United States of America as represented by the …, priority 1995, dated 2002)
“Also recorded” adds a separate entry of the source.

Test system: human peripheral blood monocytes
Assay: FACS analysis of cell surface markers on cultured peripheral blood monocytes
Type: cell-based
Settings: for effect of agent on ionophore-induced activated myeloid dendritic cell phenotype: added to calcium ionophore treatment
[1] = KT5926 1 uM, 750 ng/ml ionophore, 24 hours

Row | Molecule | effect of agent on ionophore-induced activated myeloid dendritic cell phenotype | other results
1 | rhIL-6: recombinant human IL-6 | little or no effect | 
2 | C[C@H]1O[C@@H](n2cnc3c(N)ncnc32)C[C@@H]1O [2′5′-DDA] | enhanced CD14 downregulation and upregulation of costimulatory, MHC, and other molecule expression | 
3 | CCCC(=O)Nc1nc2c(ncn2C2O[C@H]3COP(=O)(O)O[C@@H]3[C@@H]2OC(=O)CCC)c(=O)[nH]1 (some centres unmarked) [dibutryl cGMP] | enhanced CD14 downregulation and upregulation of costimulatory, MHC, and other molecule expression | 
4 | CCCCC[C@H](O)/C=C/[C@H]1[C@H](O)CC(=O)[C@@H]1C/C=C\CCCC(=O)O [PGE2] | inhibited at least some of the ionophore's effects | 
5 | C[C@H](CCC(=O)O)C[C@H](C)C[C@H](C)C(=O)/C=C(\O)[C@H](C)C[C@H](C)C/C=C/[C@@H](C)[C@@H](O)[C@@H](C)[C@@H](O)C[C@@H]1CC[C@@](C)([C@H]2CC[C@@](C)([C@@H](C)O)O2)O1 [ionomycin] |  | activation and dendritic cell phenotypic conversion of pooled monocyte plus DC fractions (added at the beginning of a 24-48 hr culture period): uniform activation and dendritic cell phenotypic conversion
6 | rhIL-4: recombinant human IL-4 | enhanced CD14 downregulation and upregulation of costimulatory, MHC, and other molecule expression | 
7 | CCCOc1ccc2c(c1)c1c3c(c4c5ccccc5n5c4c1n2[C@H]1C[C@](O)(C(=O)OC)[C@]5(C)O1)CNC3=O [KT-5926] | inhibited at least some of the ionophore's effects | suppression of CD40 [1]: > 50%; suppression of CD80 [1]: > 60%; suppression of CD86 [1]: about 50%; suppression of HLA-ABC [1]: over 40%; suppression of HLA-DR [1]: modest, but detectable suppression
8 | COC(=O)[C@@]1(OC)C[C@H]2O[C@]1(C)n1c3ccccc3c3c4c(c5c6ccccc6n2c5c31)C(=O)N(C)C4 [KT5823] | inhibited at least some of the ionophore's effects | 
9 | MCP-1: chemokine inducing monocyte chemotaxis |  | induction of activated myeloid dendritic cell phenotype (CD80 and CD83 expression) (20-40 hours, wide dose range, alone or in combination): do not induce monocytes to express the phenotype of activated myeloid dendritic cells
10 | C=C1[C@@H](O)[C@@H]2O[C@]3(CC[C@H](/C=C/[C@@H](C)[C@@H]4CC(C)=C[C@@]5(O[C@H](C[C@@](C)(O)C(=O)O)CC[C@H]5O)O4)O3)CC[C@H]2O[C@@H]1[C@@H](O)C[C@H](C)[C@H]1O[C@@]2(CCCCO2)CC[C@H]1C [okadaic acid] | enhanced CD14 downregulation and upregulation of costimulatory, MHC, and other molecule expression | 
11 | C[C@@H]1[C@H](O)[C@@H](C)/C=C/C=C/C=C/C=C/C=C/C=C/C=C/[C@H](O[C@@H]2O[C@H](C)[C@@H](O)[C@H](N)[C@@H]2O)C[C@@H]2O[C@](O)(C[C@@H](O)C[C@@H](O)[C@H](O)CC[C@@H](O)C[C@@H](O)CC(=O)O[C@H]1C)C[C@H](O)[C@H]2C(=O)O [amphotericin B] | enhanced the induction of an activated myeloid dendritic cell phenotype; also recorded: enhance calcium ionophore's effect | effect of agent alone on monocytes (without ionophore): no or little effect alone
12 | CN([C@@H](Cc1ccc(OS(=O)(=O)c2cccc3cnccc23)cc1)C(=O)N1CCN(c2ccccc2)CC1)S(=O)(=O)c1cccc2cnccc12 [KN-62] | inhibited at least some of the ionophore's effects | 
13 | CCCC(=O)Nc1ncnc2c1ncn2[C@@H]1O[C@@H]2COP(=O)(O)O[C@H]2[C@H]1OC(=O)CCC [dibutryl cAMP] | inhibited at least some of the ionophore's effects | 
14 | C[C@]12C=CC(=O)C=C1CC[C@@H]1[C@@H]2[C@@H](O)C[C@@]2(C)[C@H]1CC[C@]2(O)C(=O)CO [prednisolone] | inhibited at least some of the ionophore's effects | 
